{"source": "patent US10646498B2", "about": "“Composition for preventing, alleviating or treating muscle diseases or improving muscular function” (AAT COSTECH CO., LTD., priority 2015, dated 2020)", "key": {"p-p70S6K": {"tested_on": "p-p70S6K", "experiment": "p-p70S6K protein expression in L6 muscle cells (Western blot)", "assay_type": "cell-based", "settings": "fucosterol 1 and 10 μM, FIG. 2", "protocol": "(§1) As muscle cells, L6 myoblasts (ATCC CRL-1458, Manassas, Va., USA) were added to a 6-well plate at a density of 2×10^5 cells/mL together with a Dulbecco's modified Eagle's medium (DMEM; Hyclone) supplemented with 10% fetal bovine serum (FBS; Hyclone, Logan, Utah, USA). […] In this case, a group in which the cells were treated with 0.01% DMSO instead of the sample was used as the control. This procedure was carried out at an interval of 2 days for 6 days to differentiate the cells, and the cells were then dissolved in an NP-40 buffer (ELPIS-Biotech, Daejeon, Korea) containing a proteinase inhibitor cocktail. The cells lysed in the buffer were transferred to a 1.5 ml tube, and centrifuged at 13,000 rpm for 10 minutes to collect only a supernatant. The supernatant was quantified using a Bradford method (Bradford, Bio-Rad Laboratories Inc., Hercules, Calif., USA). The quantified proteins were boiled for 5 minutes, and separated through 10% SDS-PAGE, and the separated proteins were transferred to a nitrocellulose membrane. A p-mTOR primary antibody (Cell Signaling Technology, Beverly, Mass., USA) was diluted with 2.5% bovine serum albumin (BSA) at a ratio of 1:1,000, and reacted with the proteins transferred to the nitrocellulose membrane at room temperature for 20 hours. […]"}, "[1]": {"tested_on": "Wistar rats with TNF-α-induced muscle atrophy", "settings": "300 mg/kg, 1344 h", "protocol": "Five-week-old Wistar rats (Daehan Biolink, Korea) were adapted for one week, and fed 100 ng/g of TNF-α for 2 weeks to induce muscle atrophy. Thereafter, the rats were randomly divided into a total of 6 groups based on the weights thereof, each group consisting of 8 rats, which were then used in this experiment. […] In this case, a group in which TNF-α was added to the same amount of 0.25% carboxymethyl cellulose which the experimental group ingested was used as the control.\nAfter the sample was administered for 8 weeks, muscles were incised from right lower calves of the rats, and weighed using a microbalance (Mettler PE160, USA)."}, "atrogin-1": {"tested_on": "atrogin-1", "experiment": "atrogin-1 mRNA expression in TNF-α-treated L6 muscle cells (RT-PCR), muscle protein degradation", "assay_type": "cell-based", "settings": "differentiated L6 muscle cells, 50 ng/mL TNF-α, fucosterol 1 and 10 μM, 6 hours, FIG. 6", "protocol": "(§2) As muscle cells, L6 myoblasts (ATCC) were added to a 6-well plate at a density of 2×10^5 cells/mL together with DMEM (Hyclone) supplemented with 10% FBS (Hyclone). When the cell density reached approximately 80 to 85%, the medium contained in the wells was removed, and the cells were treated with DMEM (Hyclone) supplemented with 2% HS (Hyclone) to induce myotube differentiation. Cell differentiation was performed for a total of 6 days while replacing the medium with a fresh medium every 2 days. After the differentiation, the fucosterol isolated and purified in Example 3 was dissolved at concentrations of 1 and 10 μM in DMEM (Hyclone) supplemented with 50 ng/mL of tumor necrosis factor alpha (TNF-α; PeproTech, Rocky Hills, N.J., USA), and the cells were then treated with the fucosterol. After 6 hours, total RNA was isolated using a TRIzol reagent (Invitrogen). The isolated total RNA was quantified using NanoDrop 1000 (Thermo Fisher Scientific Inc., MA, USA). 16 μL of the quantified RNA was synthesized into cDNA using Reverse Transcriptase Premix (ELPIS-Biotech) and a PCR machine (Gene Amp PCR System 2700; Applied Biosystems) under conditions of 42° C. and 55 minutes and 70° C. and 15 minutes. […]"}, "MuRF-1": {"tested_on": "MuRF-1", "experiment": "MuRF-1 mRNA expression in TNF-α-treated L6 muscle cells (RT-PCR), muscle protein degradation", "assay_type": "cell-based", "settings": "differentiated L6 muscle cells, 50 ng/mL TNF-α, fucosterol 1 and 10 μM, 6 hours, FIG. 6", "protocol": "as §2"}, "p-4EBP1": {"tested_on": "p-4EBP1", "experiment": "p-4EBP1 protein expression in L6 muscle cells (Western blot)", "assay_type": "cell-based", "settings": "fucosterol 1 and 10 μM, FIG. 2", "protocol": "as §1"}, "p-mTOR": {"tested_on": "p-mTOR", "experiment": "p-mTOR protein expression in L6 muscle cells (Western blot)", "assay_type": "cell-based", "settings": "fucosterol 10 μM, treated every 2 days for 6 days, vs 0.01% DMSO control, FIG. 1", "protocol": "As muscle cells, L6 myoblasts (ATCC CRL-1458, Manassas, Va., USA) were added to a 6-well plate at a density of 2×10^5 cells/mL together with a Dulbecco's modified Eagle's medium (DMEM; Hyclone) supplemented with 10% fetal bovine serum (FBS; Hyclone, Logan, Utah, USA). […] The supernatant was quantified using a Bradford method (Bradford, Bio-Rad Laboratories Inc., Hercules, Calif., USA). The quantified proteins were boiled for 5 minutes, and separated through 10% SDS-PAGE, and the separated proteins were transferred to a nitrocellulose membrane. […]\nMuscle cells were treated with the ultra-high pressure extract of Sargassum fulvellum prepared in Example 1-6, the supercritical fluid extract of Sargassum fulvellum prepared in Example 1-7, the subcritical fluid extract of Sargassum fulvellum prepared in Example 1-8, the ultra-high pressure extract of Sargassum fusiforme prepared in Example 2-6, the supercritical fluid extract of Sargassum fusiforme prepared in Example 2-7, and the subcritical fluid extract of Sargassum fusiforme prepared in Example 2-8 at a concentration of 20 ppm in the same manner as in Example 4. A p-mTOR protein band was chromogenically developed using an ECL Western blotting detection reagent (Amersham, Tokyo, Japan), and a density of the chromogenically developed protein band was measured using a G;BOX EF imaging system (Syngene, Cambridge, UK). […]"}, "MyoD": {"tested_on": "MyoD", "experiment": "MyoD mRNA expression in L6 muscle cells (RT-PCR), muscle differentiation", "assay_type": "cell-based", "settings": "fucosterol 1 and 10 μM, 6 days, vs 0.01% DMSO control, FIG. 3", "protocol": "(§3) As muscle cells, L6 myoblasts (ATCC) were added to a 6-well plate at a density of 2×10^5 cells/mL together with DMEM (Hyclone) supplemented with 10% FBS (Hyclone). When the cell density reached approximately 80 to 85%, the medium contained in the wells was removed, and the fucosterol isolated and purified in Example 3 was dissolved at concentrations of 1 and 10 μM in DMEM (Hyclone) supplemented with 2% HS (Hyclone), and the cells were treated with the fucosterol to induce myotube differentiation. In this case, a group in which the cells were treated with 0.01% DMSO instead of the sample was used as the control. This procedure was carried out at an interval of 2 days for 6 days to differentiate the cells, and total RNA was isolated using a TRIzol reagent (Invitrogen, Carlsbad, Calif., USA). The isolated total RNA was quantified using NanoDrop 1000 (Thermo Fisher Scientific Inc., MA, USA). 16 μL of the quantified RNA was synthesized into cDNA using Reverse Transcriptase Premix (ELPIS-Biotech) and a PCR machine (Gene Amp PCR System 2700, Applied Biosystems, MA, USA) under conditions of 42° C. and 55 minutes and 70° C. and 15 minutes. […]"}, "myogenin": {"tested_on": "myogenin", "experiment": "myogenin mRNA expression in L6 muscle cells (RT-PCR), muscle differentiation", "assay_type": "cell-based", "settings": "fucosterol 1 and 10 μM, 6 days, vs 0.01% DMSO control, FIG. 3", "protocol": "as §3"}}}
{"smiles": "C/C=C(\\CC[C@@H](C)[C@H]1CC[C@H]2[C@@H]3CC=C4C[C@@H](O)CC[C@]4(C)[C@H]3CC[C@]12C)C(C)C", "note": "[Fucosterol, (3-beta,24E)-stigmasta-5,24(28)-dien-3-ol]", "values": [{"measurement": "protein expression level of p-p70S6K", "setting": "p-p70S6K", "value": "increased"}, {"measurement": "Mean weight of calf muscles", "setting": "[1]", "value": "522.1 ± 30.6", "unit": "mg"}, {"measurement": "increase in weights of the muscles compared to the control", "setting": "[1]", "value": 25.78, "unit": "%"}, {"measurement": "mRNA expression of atrogin-1", "setting": "atrogin-1", "value": "decreased"}, {"measurement": "mRNA expression of MuRF-1", "setting": "MuRF-1", "value": "decreased"}, {"measurement": "protein expression level of p-4EBP1", "setting": "p-4EBP1", "value": "increased"}, {"measurement": "expression level of p-mTOR", "setting": "p-mTOR", "value": "increased"}, {"measurement": "mRNA expression of MyoD", "setting": "MyoD", "value": "increased"}, {"measurement": "mRNA expression of myogenin", "setting": "myogenin", "value": "increased"}]}
